The test system of experiment [1] is T-Rex 293 cell line SC3 cells lacking increased expression of androgen receptor protein. The experiment is described as follows: Cellular growth inhibition, T-Rex 293 SC3 cells without doxycycline, CellTiter-Glo. Conditions: T-Rex 293 SC3 cells not exposed to doxycycline, CellTiter-Glo 2.0. The format is cell-based. The procedure: (§1) The following types of cells were prepared for this experiment: (i) a T-Rex 293 cell line having increased expression of androgen receptor protein due to exposure to doxycycline and (ii) a T-Rex 293 cell line lacking increased expression of androgen receptor protein. Ability of the test compounds to inhibit proliferation of the foregoing cell types was evaluated according to the procedures set forth below.
(§2) The doxycycline-inducible androgen receptor protein expressing cell line was established using the following protocol: T-Rex 293 cells were purchased from Invitrogen (Cat #R71007) and transfected using Lipofectamine 2000 with the wild-type androgen receptor protein sequence cloned into the pcDNA4/TO vector. Transfected cells were selected using 400 μg/mL Zeocin (Invitrogen Cat #R25001). Following selection, single clones were raised and maintained in Dulbecco's Modified Eagle Medium (DMEM) supplemented with 10% w/w Tetracycline-free fetal bovine serum (FBS) and 250 μg/mL Zeocin. Clones were analyzed for expression of androgen receptor protein in the presence and absence of 10 ng/mL doxycycline (Sigma Cat #D9891), and a single doxycycline-inducible clone (hereinafter “SC3”) was selected for use in downstream assays.
(§3) The SC3 cells were seeded on poly-D-lysine coated, black clear-bottom 384-well plates at 2500/well, in 25 μL Phenol Red Free Dulbecco's Modified Eagle Medium (DMEM) supplemented with 10% w/w charcoal-dextran treated fetal bovine serum (FBS) and 1% w/w pen-strep, with or without 10 ng/mL doxycycline. Pen-Strep is a commercially available mixture of penicillin G and streptomycin, which is used in mammalian cell culture media to prevent bacterial contamination. Phenol Red Free Dulbecco's Modified Eagle Medium (DMEM) supplemented with 10% w/w charcoal-dextran treated fetal bovine serum (FBS) and 1% w/w pen-strep, with or without 10 ng/mL doxycycline is herein referred to as Treatment Medium. Following seeding of cells in the plates, the plates were spun at 300×g for 30 seconds, then equilibrated to room temperature for 30 minutes, and then deposited in a humidified tissue culture incubator maintained at 37° C. with 5% CO2.
(§4) At 24 hours after seeding of the cells, dilutions of test compound were prepared in DMSO and dissolved in Treatment Medium, to achieve a final DMSO concentration of 0.5% w/w, thereby providing the Test Compound Solution. A 25 μL aliquot of the Test Compound Solution was added to cells in the well plates. An equal volume of a solution containing DMSO and Treatment Medium was used as a negative control. Following treatment of cells with Test Compound Solution or said equal volume of a solution containing DMSO and Treatment Medium, the plates were spun at 300×g for 30 seconds, and then left in an incubator for 72 hours. At the end of the treatment duration, cell viability was quantified with CellTiter-Glo 2.0 reagent (Promega Cat #G9243). For this purpose, plates were equilibrated to room temperature for 30 minutes, and then 25 μL of CellTiter-Glo 2.0 reagent was added to cells in the plate wells. Plates were then agitated on a shaker for two minutes at 500 rpm and subsequently incubated at room temperature for 10 minutes. Following incubation, the plates were spun at 3000×g for 30 seconds, then sealed with an optical adhesive cover, and luminescence readings were measured with an EnVision Plate Reader. Data was normalized using zero luminescence for baseline. A four-parameter non-linear regression curve fit was applied to dose-response data in GraphPad Prism data analysis software to determine the half-maximal growth inhibitory concentration (GI50) for each test compound.
In general terms: Cellular ATP, detected with luciferase, serves as a proxy for viable cell number.

The test system of experiment [2] is T-Rex 293 cell line SC3 cells having increased expression of androgen receptor protein due to exposure to doxycycline. The experiment is described as follows: Cellular growth inhibition, T-Rex 293 SC3 cells with doxycycline (androgen receptor induced), CellTiter-Glo. The class given is cell-based. Conditions: T-Rex 293 SC3 cells with 10 ng/mL doxycycline (increased androgen receptor expression). The procedure:
as §1, §2, §3, §4

The subject of a further experiment is VCaP cells. The experiment is described as follows: Cellular growth inhibition assay for VCaP cells, CellTiter-Glo. The format is cell-based, human. Conditions: 72 hours treatment, CellTiter-Glo 2.0. The procedure:
VCaP cells were purchased from American Type Cell Culture (ATCC Cat #CRL2876) and then seeded on poly-D-lysine coated, black clear-bottom 384-well plates at 5000/well in 25 μL Dulbecco's Modified Eagle Medium (DMEM) supplemented with 10% w/w Fetal bovine serum (FBS) and 1% w/w Pen-Strep. Pen-Strep is a commercially available mixture of penicillin G and streptomycin, which is used in mammalian cell culture media to prevent bacterial contamination. Dulbecco's Modified Eagle Medium (DMEM) supplemented with 10% w/w fetal bovine serum (FBS) and 1% w/w Pen-Strep is herein referred to as Treatment Medium. Following seeding of cells in the plates, the plates were spun at 300×g for 30 seconds, then equilibrated to room temperature for 30 minutes, and then deposited in a humidified tissue culture incubator maintained at 37° C. with 5% CO2.
At 24 hours after seeding of the cells, dilutions of test compound were prepared in DMSO and dissolved in Treatment Medium, to achieve a final DMSO concentration of 0.5% w/w, thereby providing the Test Compound Solution. A 25 μL aliquot of the Test Compound Solution was added to cells in the well plates. An equal volume of a solution containing DMSO and Treatment Medium was used as a negative control. Following treatment of cells with Test Compound Solution or said equal volume of a solution containing DMSO and Treatment Medium, the plates were spun at 300×g for 30 seconds, and then left in an incubator for 72 hours.
At the end of the treatment duration, cell viability was quantified with CellTiter-Glo 2.0 reagent (Promega Cat #G9243). For this purpose, plates were equilibrated to room temperature for 30 minutes, and then 25 μL of CellTiter-Glo 2.0 reagent was added to cells in the plate wells. Plates were then agitated on a shaker for two minutes at 500 rpm and subsequently incubated at room temperature for 10 minutes. Following incubation, the plates were spun at 3000×g for 30 seconds, then sealed with an optical adhesive cover, and luminescence readings were measured with an EnVision Plate Reader.
Data was normalized using zero luminescence for baseline. A four-parameter non-linear regression curve fit was applied to dose-response data in GraphPad Prism data analysis software to determine the half-maximal growth inhibitory concentration (GI50) for each test compound.

Another experiment deals with T47D cells. The experiment is described as follows: Cellular growth inhibition assay for T47D cells, CellTiter-Glo. The class given is cell-based, human. Conditions: 72 hours treatment, CellTiter-Glo 2.0 cell viability. The essentials: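 Luminescence from CellTiter-Glo 2.0 after 72 h of compound exposure gives the viability signal. Cells grew in insulin-supplemented (0.2 units/mL) DMEM with 10% FBS and were treated one day after seeding at 0.5% DMSO. GI50 values come from four-parameter nonlinear regression.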

Usually GI50 stands for the concentration that inhibits growth by half. Higher therefore signals lower sensitivity of the cells.

Take `Cc1sc2c(c1C)C(c1ccc(N3CC[C@H](Nc4ncc(C(=O)N[C@H]5C(C)(C)[C@H](Oc6ccc(C#N)c(Cl)c6)C5(C)C)cn4)C3)cc1)=N[C@@H](Cc1ncco1)c1nnc(C)n1-2` [Compound I-624]: the GI50 in experiment [1] (72 h) and in experiment [2] (72 h) was under 500 nM each time.

For the compound `Cc1sc2c(c1C)C(c1ccc(N3CCC[C@@H](CNc4ncc(C(=O)N[C@H]5C(C)(C)[C@H](Oc6ccc(C#N)c(Cl)c6)C5(C)C)cn4)C3)cc1)=NC(Cc1ncco1)c1nnc(C)n1-2` (stereo partly drawn) [Compound I-662], the GI50 in experiment [1] (72 h) was 500 to 1500 nM; with VCaP cells (Homo sapiens, VCaP, 72 h) it was under 500 nM.

On to `Cc1sc2c(c1C)C(c1ccc(NC3C[C@@H]4CCC[C@@H](C3)N4c3ncc(C(=O)N[C@H]4C(C)(C)[C@H](Oc5ccc(C#N)c(Cl)c5)C4(C)C)cn3)cc1)=N[C@@H](Cc1ncco1)c1nnc(C)n1-2` (stereo partly drawn) [Compound I-629], for which the 50% growth inhibitory concentration (GI50) in experiment [1] (72 hours) was over 3000 nM; in experiment [2] (72 hours), under 500 nM.

For `Cc1sc2c(c1C)C(c1ccc(N3C[C@H]4C[C@@H]3CN4c3ncc(C(=O)N[C@H]4C(C)(C)[C@H](Oc5ccc(C#N)c(Cl)c5)C4(C)C)cn3)cc1)=NC(Cc1ncco1)c1nnc(C)n1-2` (stereo partly drawn) [Compound I-665], the GI50 in experiment [1] (72 h) was under 500 nM; with VCaP cells (Homo sapiens, VCaP, 72 h) it was under 500 nM.

`Cc1sc2c(c1C)C(c1ccc(CC(=O)NCCc3ncc(C(=O)N[C@H]4C(C)(C)[C@H](Oc5ccc(C#N)c(Cl)c5)C4(C)C)cn3)cc1)=N[C@@H](Cc1ncco1)c1nnc(C)n1-2` [Compound I-440]: the GI50 in experiment [1] (72 h) is over 3000 nM; in the experiment on VCaP cells (Homo sapiens, VCaP, 72 h), 500 to 1500 nM; in the experiment on T47D cells (Homo sapiens, T47D, 72 h), 1500 to 3000 nM.

Take `Cc1sc2c(c1C)C(c1ccc(N3CCC4(CCCN(c5ncc(C(=O)N[C@H]6C(C)(C)[C@H](Oc7ccc(C#N)c(Cl)c7)C6(C)C)cn5)C4)C3)cc1)=N[C@@H](Cc1ncco1)c1nnc(C)n1-2` (stereo partly drawn) [Compound I-632]: the GI50 was over 3000 nM in experiment [1] (72 h) and under 500 nM in experiment [2] (72 h).

With `Cc1sc2c(c1C)C(c1ccc(N3C[C@H](F)C[C@@H](Nc4ncc(C(=O)N[C@H]5C(C)(C)[C@H](Oc6ccc(C#N)c(Cl)c6)C5(C)C)cn4)C3)cc1)=NC(Cc1ncco1)c1nnc(C)n1-2` (stereo partly drawn) [Compound I-664], the GI50 in experiment [1] (72 h) was under 500 nM; in the experiment on VCaP cells (Homo sapiens, VCaP, 72 h) it was under 500 nM.

In the case of `Cc1sc2c(c1C)C(c1ccc(NCCN3CCN(c4ncc(C(=O)N[C@H]5C(C)(C)[C@H](Oc6ccc(C#N)c(Cl)c6)C5(C)C)cn4)CC3)cc1)=NC(Cc1ncco1)c1nnc(C)n1-2` (stereo partly drawn) [Compound I-661], the GI50 in experiment [1] (72 h) was under 500 nM; in the experiment with VCaP cells (Homo sapiens, VCaP, 72 h), under 500 nM.

`Cc1sc2c(c1C)C(c1ccc(N[C@H]3CC[C@@H](Nc4ncc(C(=O)N[C@H]5C(C)(C)[C@H](Oc6ccc(C#N)c(Cl)c6)C5(C)C)cn4)CC3)cc1)=N[C@@H](Cc1ncco1)c1nnc(C)n1-2` [Compound I-623]: the GI50 in experiment [1] (72 h) and in experiment [2] (72 h) was under 500 nM each time.

Regarding `Cc1sc2c(c1C)C(c1ccc(N3[C@@H]4CC[C@H]3C[C@@H](Nc3ncc(C(=O)N[C@H]5C(C)(C)[C@H](Oc6ccc(C#N)c(Cl)c6)C5(C)C)cn3)C4)cc1)=N[C@@H](Cc1ncco1)c1nnc(C)n1-2` [Compound I-631], the GI50 in experiment [1] (72 hours) is over 3000 nM; in experiment [2] (72 hours), under 500 nM.

On to `Cc1sc2c(c1C)C(c1ccc(N3CCC(C)(Nc4ncc(C(=O)N[C@H]5C(C)(C)[C@H](Oc6ccc(C#N)c(Cl)c6)C5(C)C)cn4)CC3)cc1)=N[C@@H](Cc1ncco1)c1nnc(C)n1-2` [Compound I-626], for which the GI50 was over 3000 nM in experiment [1] (72 h) and under 500 nM in experiment [2] (72 h).

For `Cc1sc2c(c1C)C(c1ccc(N3CC4(CCN(c5ncc(C(=O)N[C@H]6C(C)(C)[C@H](Oc7ccc(C#N)c(Cl)c7)C6(C)C)cn5)CC4)C3)cc1)=NC(Cc1ncco1)c1nnc(C)n1-2` (stereo partly drawn) [Compound I-625], the GI50 in experiment [1] (72 h) is over 3000 nM; in experiment [2] (72 h), under 500 nM.

`Cc1sc2c(c1C)C(c1ccc(N[C@H]3CCN(c4ncc(C(=O)N[C@H]5C(C)(C)[C@H](Oc6ccc(C#N)c(Cl)c6)C5(C)C)cn4)C[C@@H]3F)cc1)=NC(Cc1ncco1)c1nnc(C)n1-2` (stereo partly drawn) [Compound I-630]: the GI50 in experiment [1] (72 h) and in experiment [2] (72 h) was under 500 nM in each case.

For `Cc1sc2c(c1C)C(c1ccc(NCC3CC4(C3)CN(c3ncc(C(=O)N[C@H]5C(C)(C)[C@H](Oc6ccc(C#N)c(Cl)c6)C5(C)C)cn3)C4)cc1)=N[C@@H](Cc1ncco1)c1nnc(C)n1-2` [Compound I-660], the GI50 was under 500 nM in experiment [1] (72 h); under 500 nM in the experiment on VCaP cells (Homo sapiens, VCaP, 72 h); under 500 nM in the experiment on T47D cells (Homo sapiens, T47D, 72 h).

As to `Cc1sc2c(c1C)C(c1ccc(N[C@H]3CC[C@H](Nc4ncc(C(=O)N[C@H]5C(C)(C)[C@H](Oc6ccc(C#N)c(Cl)c6)C5(C)C)cn4)CC3)cc1)=N[C@@H](Cc1ncco1)c1nnc(C)n1-2` [Compound I-663], the concentration for 50% growth inhibition (GI50) is under 500 nM in experiment [1] (72 h) and under 500 nM in the experiment on VCaP cells (Homo sapiens, VCaP, 72 h).

In the case of `Cc1sc2c(c1C)C(c1ccc(NCCC3CCN(c4ncc(C(=O)N[C@H]5C(C)(C)[C@H](Oc6ccc(C#N)c(Cl)c6)C5(C)C)cn4)CC3)cc1)=NC(Cc1ncco1)c1nnc(C)n1-2` (stereo partly drawn) [Compound I-627], the GI50 in experiment [1] (72 h) and in experiment [2] (72 h) was under 500 nM each time.

With `Cc1sc2c(c1C)C(c1ccc(CC3CC(OC4CCN(c5ncc(C(=O)N[C@H]6C(C)(C)[C@H](Oc7ccc(C#N)c(Cl)c7)C6(C)C)cn5)CC4)C3)cc1)=N[C@@H](C)c1nnc(C)n1-2` (stereo partly drawn) [Compound I-446], the figures for the GI50 (in experiment [1] (72 hours); with VCaP cells; in the experiment with T47D cells) were over 3000 nM, 1500 to 3000 nM and under 500 nM, respectively.

On to `Cc1sc2c(c1C)C(c1ccc(C[C@@H]3CC[C@@]4(C3)CN(c3ncc(C(=O)N[C@H]5C(C)(C)[C@H](Oc6ccc(C#N)c(Cl)c6)C5(C)C)cn3)CCO4)cc1)=N[C@@H](Cc1ncco1)c1nnc(C)n1-2` [Compound I-309], for which the GI50 in the experiment with VCaP cells (Homo sapiens, VCaP, 72 h) is over 3000 nM; with T47D cells (Homo sapiens, T47D, 72 h), over 3000 nM.

The values above are taken from US20260062422A1 (Halda Therapeutics OpCo, Inc., priority 2022, published 2026).
